Measurements: patent publication EP0070133B1, “Secondary phenylethanol amines, processes for their preparation and their pharmaceutical application” (priority 1981, dated 1983)
Structures can show the parent of a compound that is named as a salt. Where two headings read alike, the source gives them in different places.

What was measured:
[1] = tested on: Female CFLP mice; assay: Anti-hyperglycaemic activity: subcutaneous glucose load in fasted mice, area under blood glucose curve; type: in vivo; conditions: glucose 1 g/kg sc, 2 hour period, vs water control
Procedure: Female CFLP mice, each weighing approximately 25 g, were fasted for 24 hours prior to the study. The compounds under study were administered orally as an aqueous solution to each of 6 mice. 6 mice were given water as a control. 30 minutes later a blood sample (20 µl) was obtained from the tail for the analysis of blood glucose. Immediately after taking this blood sample, glucose (1 g/kg body weight) was administered subcutaneously to each mouse. Blood samples were then obtained from each mouse at 30 minute intervals for 120 minutes.
Compounds that produced a significant (P<0.05) reduction of blood glucose, compared with control mice given water, at any time interval, were considered active. The area under the blood glucose curve over the 2 hour period after the administration of the glucose was calculated for each compound and compared with the value for control animals.

[2] = tested on: Female CFLP mice; assay: Effect on energy expenditure and food intake of mice; type: in vivo; conditions: Mus musculus, po, 21 h
[3] = tested on: Rat hearts; assay: Cardiac activity: rat hearts perfused by the Langendorff procedure
Procedure: Rat hearts were perfused by the Langendorff procedure as follows:- • Hearts were dissected free within 30 seconds of death and reverse perfused via the aorta and coronary vessels with Krebs-Ringer bicarbonate solution (pH 7.4, 37°C) gassed with 95% oxygen:5% carbon dioxide at a flow rate between 8-12 cm^3/minute. Responses were observed after injection of drug dissolved in isotonic saline into the perfusion media.
Results are expressed as a percentage of the maximum response due to salbutamol.

[4] = tested on: genetically obese mice; assay: Anti-obesity activity: carcass composition after 28 days of daily dosing; type: in vivo
Procedure: The compounds were administered by oral gavage in water or carboxymethyl-cellulose suspension to genetically obese mice daily for 28 days. At the end of the time the carcass composition was determined. The results obtained were as follows:-

[5] = tested on: platelet aggregation in human whole blood; assay: Collagen-induced platelet aggregation in human whole blood in vitro; type: cell-based; conditions: Final Concentration in Whole Blood 100 μM; collagen EC50 in presence of compound divided by control EC50
Procedure: Collagen-induced platelet aggregation in human whole blood in vitro.
Collagen added to stirred citrated blood causes platelet aggregation. As the platelets aggregate, the concentration of single platelets falls. […] Inhibitors of aggregation, such as aspirin and dipyridamole, reduce the response to collagen.
Collagen (Hormon-Chemie, Munich) or 154 mM NaCl (control) was added to each aliquot of blood stirred at 1100 rpm in an aggregometer at 37° after 3 mins pre-incubation with compound or appropriate solvent. Aggregates were fixed by addition of 0.5 vol 4.5% formaldehyde or 0.05 vol phosphate-buffered glutaraldehyde. Single platelets were counted electronically. Responses, expressed as per cent fall in platelet count, were obtained to a range of collagen concentrations. The concentration producing 50% maximal effect (EC50) was estimated from log10 concentration-response curves. Dose-ratios were calculated by dividing the EC50 obtained in the presence of compound under test by the control EC50.

[6] = read-out: Mean Energy Expenditure (%)
[7] = 10 μg added to perfusate, perfused rat heart, read-out: Heart Rate
[8] = 10 μg added to perfusate, perfused rat heart, read-out: Heart Tension
[9] = Rattus norvegicus, read-out: Heart Rate
[10] = Rattus norvegicus, read-out: Heart Tension

CNCCOc1ccc(CC(C)NCC(O)c2cccc(C(F)(F)F)c2)cc1 (stereo not drawn) [Example 1, N-[2-(4-(2-Methylaminoethoxy)phenyl)-1-methylethyll-2-hydroxy-2-(3-trifluoromethylphenyl)ethanaminedihydrochloride]
Reduction in area under Blood glucose curve (%) ([1]; 1 μ moles/kg po): 33%
response vs control in vivo at 26.1 mg/kg [2, 6]: 129%
response vs control in vivo at 26.1 mg/kg ([2]; read-out: Mean Food Intake (%)): 98%
Emax at 0.01 mg [3, 7]: 0%
Emax at 0.01 mg [3, 8]: 7%

CNCCOc1ccc(CC(C)NCC(O)c2cccc(C(F)(F)F)c2)cc1 (stereo not drawn) [Example 1a, N-[2-(4-(2-Methylaminoethoxy)phenyl)-1-methylethyll-2-hydroxy-2-(3-trifluoromethylphenyl)ethanaminedihydrochloride]
response vs control in vivo at 2.61 mg/kg [2, 6]: 120%
response vs control in vivo at 2.61 mg/kg ([2]; read-out: Mean Food Intake (%)): 94%
g Lipid/Mouse Treated ([4]; 13.1 mg/kg p.o. daily for 28 days, Control 19.13): 12.54 g Lipid/Mouse

CC(Cc1ccc(OCCN(C)C)cc1)NCC(O)c1cccc(C(F)(F)F)c1.Cl.Cl (stereo not drawn) [Example 2, N-[2-(4-(2-Dimethylaminoethoxy)phenyl)-1-methylethyl]-2-hydroxy-2-(3-trifluoromethylphenyl)ethanamine dihydrochloride]
Reduction in area under Blood glucose curve (%) ([1]; 5 μ moles/kg po): 49%
response vs control in vivo at 26.9 mg/kg [2, 6]: 127%
response vs control in vivo at 26.9 mg/kg ([2]; read-out: Mean Food Intake (%)): 98%
Emax at 0.01 mg [3, 9]: 0%
Emax at 0.01 mg [3, 10]: 0%

CC(Cc1ccc(OCCNS(C)(=O)=O)cc1)NCC(O)c1cccc(C(F)(F)F)c1 (stereo not drawn) [Example 3, N-[2-(4-(2-Methylsulphonylaminoethoxy)phenyl)-1-methylethyl]-2-hydroxy-2-(3-trifluoromethylphenyl)ethanamine]
Reduction in area under Blood glucose curve (%) ([1]; 1 μ moles/kg po): 56%
response vs control in vivo at 25.6 mg/kg [2, 6]: 125%
response vs control in vivo at 25.6 mg/kg ([2]; read-out: Mean Food Intake (%)): 83%
Emax at 0.01 mg [3, 7]: 38%
Emax at 0.01 mg [3, 8]: 4%

Br.Br.CNCCOc1ccc(CC(C)NCC(O)c2ccccc2F)cc1 (stereo not drawn) [Example 7, N-[2-(4-(2-Methylaminoethoxy)phenyl)-1-methylethyl]-2-hydroxy-2-(2-fluorophenyl)ethanamine dihydrobromide]
Reduction in area under Blood glucose curve (%) ([1]; 1 μ moles/kg po): 33%
response vs control in vivo at 28.3 mg/kg [2, 6]: 125%
response vs control in vivo at 28.3 mg/kg ([2]; read-out: Mean Food Intake (%)): 109%
Emax at 0.01 mg [3, 9]: 73%
Emax at 0.01 mg [3, 10]: 18%

Br.Br.CNCCOc1ccc(CC(C)NCC(O)c2cccc(Br)c2)cc1 (stereo not drawn) [Example 8, N-[2-(4-(2-Methylaminoethoxy)phenyl)-1-methylethyl]-2-hydroxy-2-(3-bromophenyl)ethanamine dihydrobromide]
Dose-Ratio [5]: 4.8
Reduction in area under Blood glucose curve (%) ([1]; 1 μ moles/kg po): 51%
response vs control in vivo at 31.6 mg/kg [2, 6]: 135%
response vs control in vivo at 31.6 mg/kg ([2]; read-out: Mean Food Intake (%)): 97%
Emax at 0.01 mg [3, 9]: 73%
Emax at 0.01 mg [3, 10]: 20%
g Lipid/Mouse Treated ([4]; 15.8 mg/kg p.o. daily for 28 days, Control 19.89): 17.91 g Lipid/Mouse

CNCCOc1ccc(CC(C)NCC(O)c2cccc(F)c2)cc1 (stereo not drawn) [Example 9, N-[2-(4-(2-Methylaminoethoxy)phenyl-1-methylethyl]-2-hydroxy-2-(3-fluorophenyl)ethanaminedihydrobromide]
Reduction in area under Blood glucose curve (%) ([1]; 1 μ moles/kg po): 39%
response vs control in vivo at 28.3 mg/kg [2, 6]: 129%
response vs control in vivo at 28.3 mg/kg ([2]; read-out: Mean Food Intake (%)): 109%
Emax at 0.01 mg [3, 7]: 73%
Emax at 0.01 mg [3, 8]: 53%

CNCCOc1ccc(CC(C)NCC(O)c2ccccc2)cc1 (stereo not drawn) [Example 10, N-[2-(4-(2-Methylaminoethoxy)phenyl-1-methylethyl]-2-hydroxy-2-phenylethanaminedihydrobromide]
Reduction in area under Blood glucose curve (%) ([1]; 1 μ moles/kg po): 30%
response vs control in vivo at 27.3 mg/kg [2, 6]: 118%
response vs control in vivo at 27.3 mg/kg ([2]; read-out: Mean Food Intake (%)): 89%
Emax at 0.01 mg [3, 7]: 14%
Emax at 0.01 mg [3, 8]: 33%

CNCCOc1ccc(CC(C)NCC(O)c2cccc(Cl)c2F)cc1.Cl.Cl (stereo not drawn) [Example 11, N-[2-(4-(2-Methylaminoethoxy)phenyl)-1-methylethyl]-2-hydroxy-2-(2-fluoro-3-chlorophenyl)ethanamine dihydrochloride]
Reduction in area under Blood glucose curve (%) ([1]; 1 μ moles/kg po): 64%
response vs control in vivo at 25.3 mg/kg [2, 6]: 148%
response vs control in vivo at 25.3 mg/kg ([2]; read-out: Mean Food Intake (%)): 79%
Emax at 0.01 mg [3, 9]: 45%
Emax at 0.01 mg [3, 10]: 60%
